ChEMBL document CHEMBL1201862, “PubChem BioAssay data set” (2004)
The source made the active and inactive calls.

Key:
[1] = target: T1, Nuclear receptor subfamily 0 group B member 1 (Homo sapiens, UniProt P51843); assay: Luminescence-based cell-based high throughput dose response assay for inhibitors of the orphan nuclear receptor subfamily 0, group B, member 1 (DAX1; NR0B1). [Related pubchem assays (depositor defined):AID504766, AID504790]; type: functional
T1 sequence (P51843 whole entry): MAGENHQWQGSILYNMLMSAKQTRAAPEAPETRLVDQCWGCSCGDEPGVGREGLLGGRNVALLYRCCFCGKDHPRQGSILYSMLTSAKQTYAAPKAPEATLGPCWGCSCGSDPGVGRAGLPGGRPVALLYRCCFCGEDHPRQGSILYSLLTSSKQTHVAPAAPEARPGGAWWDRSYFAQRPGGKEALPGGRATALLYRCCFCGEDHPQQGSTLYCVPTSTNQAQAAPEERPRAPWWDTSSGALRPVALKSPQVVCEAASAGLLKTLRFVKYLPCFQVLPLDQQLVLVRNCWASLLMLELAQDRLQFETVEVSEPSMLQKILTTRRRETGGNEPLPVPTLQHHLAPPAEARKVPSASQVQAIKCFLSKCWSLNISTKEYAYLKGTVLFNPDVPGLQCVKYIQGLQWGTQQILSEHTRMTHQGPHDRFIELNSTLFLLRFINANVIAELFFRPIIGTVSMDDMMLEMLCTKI

HEK293 = assay: cells; type: functional, cell-based; details: Homo sapiens
Major prion protein = Major prion protein (Homo sapiens, UniProt P04156); type: functional, cell-based
Protein RecA = target: T2, Protein RecA (Mycobacterium tuberculosis, UniProt P9WHJ3); assay: Fluorescence Cell-Free Homogeneous Dose Retest to Identify Inhibitors of RecA-Intein Splicing Activity. [Related pubchem assays (depositor defined):AID2097, AID2223, AID489010, AID492950]; type: functional
T2 sequence (P9WHJ3 whole entry): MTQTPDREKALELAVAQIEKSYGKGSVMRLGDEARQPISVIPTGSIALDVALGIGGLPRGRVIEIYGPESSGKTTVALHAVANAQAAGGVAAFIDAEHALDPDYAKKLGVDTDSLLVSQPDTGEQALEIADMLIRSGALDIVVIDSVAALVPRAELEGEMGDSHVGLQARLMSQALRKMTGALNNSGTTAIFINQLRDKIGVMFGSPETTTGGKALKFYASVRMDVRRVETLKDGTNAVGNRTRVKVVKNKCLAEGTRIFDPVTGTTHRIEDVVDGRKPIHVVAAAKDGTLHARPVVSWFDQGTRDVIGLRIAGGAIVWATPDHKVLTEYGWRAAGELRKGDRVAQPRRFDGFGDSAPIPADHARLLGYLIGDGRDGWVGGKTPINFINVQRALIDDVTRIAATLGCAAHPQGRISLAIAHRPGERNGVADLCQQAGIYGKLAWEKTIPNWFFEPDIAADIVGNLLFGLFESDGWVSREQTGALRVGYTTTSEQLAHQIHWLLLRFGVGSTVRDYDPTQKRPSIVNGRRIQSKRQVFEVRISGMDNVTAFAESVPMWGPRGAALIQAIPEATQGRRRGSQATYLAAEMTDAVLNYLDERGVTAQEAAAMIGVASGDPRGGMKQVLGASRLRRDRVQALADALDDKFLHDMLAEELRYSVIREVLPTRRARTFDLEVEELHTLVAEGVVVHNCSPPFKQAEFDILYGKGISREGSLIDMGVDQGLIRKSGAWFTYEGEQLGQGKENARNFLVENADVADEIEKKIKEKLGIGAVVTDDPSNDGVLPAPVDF

[2] = cytotoxicity toward DRD oncogenic fibroblasts, dose response, cell-based, non-viral oncogenic, luminescence (AID 1934); type: functional; details: Homo sapiens
BJ [3] = assay: cytotoxicity toward BJ-TERT fibroblasts, dose response, cell-based, RAS-independent, luminescence (AID 1933); type: functional; details: Homo sapiens
[4] = target: T3, Replicative DNA helicase DnaB (Mycobacterium tuberculosis, UniProt P9WMR3); assay: DnaB intein splicing inhibitors, dose response, biochemical, cell-free fluorescence (AID 449749); type: functional
T3 sequence (P9WMR3 whole entry): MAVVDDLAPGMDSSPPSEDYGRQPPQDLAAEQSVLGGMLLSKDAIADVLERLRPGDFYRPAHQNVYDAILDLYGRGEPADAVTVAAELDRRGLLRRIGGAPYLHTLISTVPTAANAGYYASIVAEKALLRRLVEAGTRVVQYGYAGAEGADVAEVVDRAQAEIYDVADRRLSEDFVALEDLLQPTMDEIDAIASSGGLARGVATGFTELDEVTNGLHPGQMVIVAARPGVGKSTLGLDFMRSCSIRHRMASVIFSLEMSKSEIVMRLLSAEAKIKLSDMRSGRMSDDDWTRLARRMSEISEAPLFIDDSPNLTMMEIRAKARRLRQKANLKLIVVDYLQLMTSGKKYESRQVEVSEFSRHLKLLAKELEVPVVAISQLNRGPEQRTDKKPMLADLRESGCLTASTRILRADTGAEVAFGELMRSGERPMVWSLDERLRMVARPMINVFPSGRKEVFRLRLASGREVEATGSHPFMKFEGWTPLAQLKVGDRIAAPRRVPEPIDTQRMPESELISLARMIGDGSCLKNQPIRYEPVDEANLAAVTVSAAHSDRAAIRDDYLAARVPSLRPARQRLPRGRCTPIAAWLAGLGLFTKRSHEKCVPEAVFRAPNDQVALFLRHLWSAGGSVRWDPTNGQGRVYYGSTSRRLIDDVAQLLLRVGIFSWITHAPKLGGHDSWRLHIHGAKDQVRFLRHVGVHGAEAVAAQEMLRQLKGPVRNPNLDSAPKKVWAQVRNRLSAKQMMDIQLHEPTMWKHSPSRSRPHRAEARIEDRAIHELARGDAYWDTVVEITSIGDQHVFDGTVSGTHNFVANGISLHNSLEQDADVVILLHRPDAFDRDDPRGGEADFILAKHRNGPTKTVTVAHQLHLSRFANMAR

BJ [5] = assay: cells; type: functional, cell-based; details: Homo sapiens
HeLa = assay: HeLa cell cytotoxicity, dose response, cytotoxicity control, 24 h, cherry-picked samples (AID 504726); type: functional, cell-based; details: Homo sapiens;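 note: potency for cytotoxicity as loss of luminescence signal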
Protein S100-A4 = Protein S100-A4 (Homo sapiens, UniProt P26447); assay: S100A4-myosin IIA binding inhibitor potency, dose response, biochemical, fluorescence polarization, cherry-picked hits (AID 687001); type: functional
Sequence of Protein S100-A4 (P26447 whole entry): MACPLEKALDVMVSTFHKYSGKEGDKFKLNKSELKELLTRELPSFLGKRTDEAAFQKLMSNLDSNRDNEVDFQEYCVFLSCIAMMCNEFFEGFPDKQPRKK

INS1 = assay: beta cell apoptosis inhibitors, cytokine rescue, dose response, luminescence, retest (AID 449756); type: functional, cell-based; details: Rattus norvegicus;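 note: cell death triggered by IL-1 beta plus TNF-alpha plus IFN-gamma mixture; protective hits raise ATP signal compared with cytokine alone wells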
ORF 73 = target: T4, ORF 73 (Human herpesvirus 8, UniProt O40947); assay: inhibitors of C-LANA binding to LBS DNA, dose response, biochemical, fluorescence polarization, cherry-picked samples (AID 504725); set-up: species or system Human gammaherpesvirus 8;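 note: fluorescence polarization of a labeled DNA duplex reporting LANA DNA binding; potency is for inhibitors that block LANA binding to the DNA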
T4 sequence (O40947 whole entry): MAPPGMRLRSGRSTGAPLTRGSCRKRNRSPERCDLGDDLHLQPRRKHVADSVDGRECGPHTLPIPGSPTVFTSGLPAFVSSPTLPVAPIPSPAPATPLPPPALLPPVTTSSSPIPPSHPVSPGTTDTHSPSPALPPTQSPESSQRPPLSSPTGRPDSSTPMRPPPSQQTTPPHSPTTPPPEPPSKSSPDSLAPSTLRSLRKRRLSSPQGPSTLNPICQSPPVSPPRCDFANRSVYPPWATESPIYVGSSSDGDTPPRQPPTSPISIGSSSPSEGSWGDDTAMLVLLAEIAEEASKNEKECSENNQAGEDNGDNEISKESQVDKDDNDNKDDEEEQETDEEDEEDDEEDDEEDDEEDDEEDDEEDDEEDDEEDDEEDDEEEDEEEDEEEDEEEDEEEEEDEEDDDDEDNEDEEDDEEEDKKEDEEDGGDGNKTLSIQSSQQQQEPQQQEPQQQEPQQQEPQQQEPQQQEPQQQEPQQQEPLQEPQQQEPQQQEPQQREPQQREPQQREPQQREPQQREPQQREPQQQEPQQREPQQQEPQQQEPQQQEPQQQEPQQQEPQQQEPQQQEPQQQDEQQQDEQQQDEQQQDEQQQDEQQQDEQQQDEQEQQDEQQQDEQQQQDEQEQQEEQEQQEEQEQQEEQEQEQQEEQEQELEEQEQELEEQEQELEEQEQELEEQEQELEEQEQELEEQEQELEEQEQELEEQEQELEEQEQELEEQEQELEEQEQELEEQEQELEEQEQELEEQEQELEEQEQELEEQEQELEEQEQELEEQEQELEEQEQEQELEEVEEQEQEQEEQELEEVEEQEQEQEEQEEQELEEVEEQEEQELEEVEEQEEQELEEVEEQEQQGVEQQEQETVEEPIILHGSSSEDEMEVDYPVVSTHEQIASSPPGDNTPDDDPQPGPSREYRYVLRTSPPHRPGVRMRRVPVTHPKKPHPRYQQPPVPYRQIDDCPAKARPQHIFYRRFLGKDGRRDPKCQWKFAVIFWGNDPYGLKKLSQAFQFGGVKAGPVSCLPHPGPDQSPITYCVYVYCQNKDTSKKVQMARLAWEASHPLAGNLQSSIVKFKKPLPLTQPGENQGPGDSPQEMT

BJ [6] = assay: cytotoxicity toward BJ-TERT-LT-ST fibroblasts, dose response, cell-based, RAS-independent, luminescence (AID 1935); type: functional; details: Homo sapiens;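 note: BJ fibroblasts immortalized with TERT plus LT and ST oncogenes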
Keap1/Nrf2 = Keap1/Nrf2 (Homo sapiens, UniProt Q14145); assay: Keap1-Nrf2 protein-protein interaction inhibitors, dose response, biochemical, fluorescence polarization, cherry-picked samples (AID 588683)
Sequence of Keap1/Nrf2 (Q16236 whole entry): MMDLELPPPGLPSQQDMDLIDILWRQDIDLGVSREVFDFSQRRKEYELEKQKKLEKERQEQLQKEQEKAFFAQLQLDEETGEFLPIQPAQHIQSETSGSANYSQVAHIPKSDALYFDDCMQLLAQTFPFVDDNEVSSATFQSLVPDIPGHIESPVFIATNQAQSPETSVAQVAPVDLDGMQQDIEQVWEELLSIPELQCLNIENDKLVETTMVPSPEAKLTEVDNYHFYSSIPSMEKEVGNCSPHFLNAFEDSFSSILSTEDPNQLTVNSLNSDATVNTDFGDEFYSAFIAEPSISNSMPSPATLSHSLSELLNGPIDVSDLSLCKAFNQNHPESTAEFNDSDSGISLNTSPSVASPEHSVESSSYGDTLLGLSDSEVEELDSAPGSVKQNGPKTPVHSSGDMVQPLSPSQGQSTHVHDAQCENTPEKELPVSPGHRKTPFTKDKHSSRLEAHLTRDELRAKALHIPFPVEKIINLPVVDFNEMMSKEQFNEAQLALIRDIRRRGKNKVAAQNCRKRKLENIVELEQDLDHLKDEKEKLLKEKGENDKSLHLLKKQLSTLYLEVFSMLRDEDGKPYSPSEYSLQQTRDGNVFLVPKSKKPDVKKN
Sequence of Keap1/Nrf2 (Q14145 whole entry): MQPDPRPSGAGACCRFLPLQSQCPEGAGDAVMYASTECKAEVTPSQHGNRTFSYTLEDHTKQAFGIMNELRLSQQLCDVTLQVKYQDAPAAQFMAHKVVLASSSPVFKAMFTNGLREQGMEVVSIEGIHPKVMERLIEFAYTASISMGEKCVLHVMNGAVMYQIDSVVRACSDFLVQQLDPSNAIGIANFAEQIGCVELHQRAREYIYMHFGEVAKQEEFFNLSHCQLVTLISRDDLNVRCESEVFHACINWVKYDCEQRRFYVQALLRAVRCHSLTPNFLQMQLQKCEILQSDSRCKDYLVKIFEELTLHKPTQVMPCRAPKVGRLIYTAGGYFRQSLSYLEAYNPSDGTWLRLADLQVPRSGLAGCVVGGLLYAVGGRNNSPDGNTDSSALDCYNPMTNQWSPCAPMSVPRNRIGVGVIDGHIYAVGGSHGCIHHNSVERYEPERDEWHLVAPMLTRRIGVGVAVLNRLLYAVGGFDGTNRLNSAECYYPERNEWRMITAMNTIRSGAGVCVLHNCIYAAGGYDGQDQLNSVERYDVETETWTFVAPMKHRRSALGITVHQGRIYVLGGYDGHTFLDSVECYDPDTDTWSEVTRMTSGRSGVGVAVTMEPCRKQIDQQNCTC

[7] = target: Peroxisome proliferator-activated receptor gamma/Nuclear receptor coactivator 3 (Homo sapiens, UniProt P37231); type: functional;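 note: agonist potency for raising coactivator recruitment to the receptor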
Sequence of Peroxisome proliferator-activated receptor gamma/Nuclear receptor coactivator 3 (P37231 whole entry): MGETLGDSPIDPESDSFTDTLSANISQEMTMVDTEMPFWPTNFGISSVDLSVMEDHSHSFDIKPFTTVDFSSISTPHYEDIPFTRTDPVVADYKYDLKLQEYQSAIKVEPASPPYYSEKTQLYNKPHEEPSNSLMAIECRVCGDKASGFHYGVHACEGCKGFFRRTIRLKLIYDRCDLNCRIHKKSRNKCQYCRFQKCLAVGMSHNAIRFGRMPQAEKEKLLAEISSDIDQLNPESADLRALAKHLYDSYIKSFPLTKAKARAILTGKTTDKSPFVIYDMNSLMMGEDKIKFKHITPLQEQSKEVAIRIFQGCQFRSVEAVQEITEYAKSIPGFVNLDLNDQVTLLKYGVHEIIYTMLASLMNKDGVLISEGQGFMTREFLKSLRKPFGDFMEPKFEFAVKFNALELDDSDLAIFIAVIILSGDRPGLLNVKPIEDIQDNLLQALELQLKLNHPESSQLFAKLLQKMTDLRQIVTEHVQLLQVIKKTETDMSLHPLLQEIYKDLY
Sequence of Peroxisome proliferator-activated receptor gamma/Nuclear receptor coactivator 3 (Q9Y6Q9 whole entry, further chain): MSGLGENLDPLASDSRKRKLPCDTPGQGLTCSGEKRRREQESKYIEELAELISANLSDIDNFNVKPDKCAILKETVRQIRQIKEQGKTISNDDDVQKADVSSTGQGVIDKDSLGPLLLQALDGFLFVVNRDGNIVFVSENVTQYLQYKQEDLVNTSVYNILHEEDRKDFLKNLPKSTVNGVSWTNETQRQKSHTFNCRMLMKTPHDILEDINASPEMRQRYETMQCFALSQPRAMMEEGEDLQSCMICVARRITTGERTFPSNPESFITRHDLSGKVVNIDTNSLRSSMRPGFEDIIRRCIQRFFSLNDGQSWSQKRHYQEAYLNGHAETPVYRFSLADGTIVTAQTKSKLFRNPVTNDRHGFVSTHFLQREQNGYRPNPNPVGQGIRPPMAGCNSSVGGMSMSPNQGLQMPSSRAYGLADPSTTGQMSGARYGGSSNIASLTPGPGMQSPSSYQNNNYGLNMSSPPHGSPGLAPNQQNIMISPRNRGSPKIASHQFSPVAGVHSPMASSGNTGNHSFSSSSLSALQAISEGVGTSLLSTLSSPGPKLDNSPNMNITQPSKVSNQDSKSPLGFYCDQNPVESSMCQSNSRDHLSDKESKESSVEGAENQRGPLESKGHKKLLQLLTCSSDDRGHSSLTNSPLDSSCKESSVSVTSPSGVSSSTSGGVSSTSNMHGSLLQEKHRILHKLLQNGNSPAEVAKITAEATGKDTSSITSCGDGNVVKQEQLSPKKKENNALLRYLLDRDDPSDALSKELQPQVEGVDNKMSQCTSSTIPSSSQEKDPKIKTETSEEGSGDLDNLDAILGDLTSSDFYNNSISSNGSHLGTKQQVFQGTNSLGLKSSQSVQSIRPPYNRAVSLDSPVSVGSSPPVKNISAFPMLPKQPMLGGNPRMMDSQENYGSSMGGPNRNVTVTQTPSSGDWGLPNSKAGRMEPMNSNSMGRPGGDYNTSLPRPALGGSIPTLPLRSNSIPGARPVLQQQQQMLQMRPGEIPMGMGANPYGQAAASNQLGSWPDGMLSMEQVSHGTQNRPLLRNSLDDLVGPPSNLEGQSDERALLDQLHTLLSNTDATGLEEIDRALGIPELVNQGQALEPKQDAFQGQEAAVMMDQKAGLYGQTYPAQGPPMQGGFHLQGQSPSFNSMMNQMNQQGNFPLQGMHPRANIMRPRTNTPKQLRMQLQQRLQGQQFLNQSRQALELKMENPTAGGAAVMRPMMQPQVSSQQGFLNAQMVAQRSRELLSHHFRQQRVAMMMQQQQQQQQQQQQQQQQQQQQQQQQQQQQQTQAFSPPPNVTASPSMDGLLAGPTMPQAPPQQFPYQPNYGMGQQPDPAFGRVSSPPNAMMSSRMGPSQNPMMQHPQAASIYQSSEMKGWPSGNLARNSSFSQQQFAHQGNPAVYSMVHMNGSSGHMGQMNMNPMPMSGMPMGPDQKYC

[8] = target: Beta-2 adrenergic receptor (Homo sapiens, UniProt P07550); assay: beta2AR agonists driving receptor internalization, dose response, cell-based, FAP fluorogen, flow cytometry, cherry pick 1 (AID 588763); type: functional
Sequence of Beta-2 adrenergic receptor (P07550 whole entry): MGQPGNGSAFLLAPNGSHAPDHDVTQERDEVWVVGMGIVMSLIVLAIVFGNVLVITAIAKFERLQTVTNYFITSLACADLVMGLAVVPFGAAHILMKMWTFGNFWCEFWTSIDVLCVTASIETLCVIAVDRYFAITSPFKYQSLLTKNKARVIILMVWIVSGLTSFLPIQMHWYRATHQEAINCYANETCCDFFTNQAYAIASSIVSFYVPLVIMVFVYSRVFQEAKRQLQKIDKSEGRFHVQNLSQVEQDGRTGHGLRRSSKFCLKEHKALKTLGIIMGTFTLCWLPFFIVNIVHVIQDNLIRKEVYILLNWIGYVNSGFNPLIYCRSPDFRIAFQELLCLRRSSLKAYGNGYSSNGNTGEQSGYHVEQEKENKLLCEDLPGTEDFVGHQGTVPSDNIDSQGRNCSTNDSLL

[9] = target: Peroxisome proliferator-activated receptor gamma/Nuclear receptor coactivator 1 (Homo sapiens, UniProt P37231); type: functional;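 note: agonist potency as compounds enhance coactivator SRC-1 recruitment to PPARgamma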
[10] = target: Peroxisome proliferator-activated receptor gamma/Nuclear receptor coactivator 2 (Homo sapiens, UniProt P37231); type: functional;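 note: agonist potency for raising coactivator recruitment to the receptor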

CC(C)CSc1nnc2c3ccccc3n(C)c2n1
IC50 [1]: > 67.5 µM (inactive)
IC50 (HEK293): > 67.5 µM (inactive)
IC50 (Major prion protein): 4.37 µM (active)
IC50 (cells): > 138 µM (inactive)

CN1CCN(c2ccc([N+](=O)[O-])c3no[n+]([O-])c23)CC1
EC50 (Protein RecA): > 380 µM (inactive)
EC50 [2]: 5.89 µM (active)
EC50 (BJ [3]): 0.793 µM (active)
AC50 [4]: > 380 µM (inactive)
EC50 (BJ [5]): 2.37 µM (inconclusive)
AC50 (HeLa): 2.57 µM (active)
AC50 (Protein S100-A4): 3.3 µM (active)
AC50 (INS1): 1.83 µM (active)
AC50 (ORF 73): 12.6 µM (active)
EC50 (BJ [6]): 1.13 µM (inconclusive)
AC50 (Keap1/Nrf2): > 52 µM (inactive)

Cc1cc(C)n(-c2nc(SCC(=O)Nc3nccs3)c3c4c(sc3n2)COC(C)(C)C4)n1
EC50 [7]: > 79.4 µM (not active)
EC50 [8]: 8.85 µM (inactive)
EC50 [9]: > 79.4 µM (not active)
EC50 [10]: > 79.4 µM (not active)
